The results in this text go back to patent US7160875B2, “Malonamide derivatives” (priority 2003, dated 2007).

For orientation: IC50 means the concentration that inhibits the measured activity by half.

This assay has as its target γ-secretase (Homo sapiens, UniProt P49768). Description: in vitro γ-secretase assay (HEK293 membrane fraction, recombinant APP substrate, Abeta ELISA). Format: biochemical. The conditions noted are these: γ-secretase inhibition; HEK293 membrane fraction solubilized in 0.25% CHAPSO, C-terminal 100 amino acids of human APP as substrate, Abeta detected by ELISA. The source says: The activity of test compounds can be evaluated in assays which measure the proteolytic cleavage of suitable substrates by γ-secretase activity. These can be cellular assays where e.g., a substrate of the γ-secretase is fused in its cytoplasmic domain to a transcription factor. Cells are transfected with this fusion gene and a reporter gene, e.g., firefly luciferase, which expression is enhanced by the transcription factor. Cleavage of the fused substrate by γ-secretase will lead to expression of the reporter gene which can be monitored in appropriate assays. The γ-secretase activity can also be determined in cell-free in vitro […] containing the γ-secretase complex is incubated with a suitable APP-derived substrate which is cleaved to the Abeta peptides. The amount of produced peptides can be determined with specific ELISA assays. Cell lines of neuronal origin secrete Abeta peptides which can be measured with the specific ELISA assay. Treatment with compounds which inhibit γ-secretase leads to a reduction of secreted Abeta thus providing a measure of inhibition. The in vitro assay of γ-secretase activity uses a HEK293 membrane fraction as a source of γ-secretase and a recombinant APP substrate. The latter consist of the C-terminal 100 amino acids of human APP fused to a 6× Histidin tail for purification which is expressed in E. coli in a regulatable expression vector, e.g. pEt15. This recombinant protein corresponds to the truncated APP fragment which results after […] of the extracellular domain and which constitutes the γ-secretase substrate. The assay principle is described in Li Y M et al, PNAS 97(11), 6138-6143 (2000). Hek293 cells are mechanically disrupted, and the microsomal fraction is isolated by differential centrifugation. The membranes are solubilized in detergent (0.25% CHAPSO) and incubated with the APP substrate. The Abeta peptides which are produced by γ-secretase cleavage of the substrate are detected by specific ELISA assays as described (Brockhaus M et al, Neuroreport 9(7), 1481-1486 (1998).
For orientation: An ELISA detects its analyte on a solid surface through an enzyme-linked reagent.
“5-Methyl-4-oxo-(3S)-[(2RS)-(2,2,3,3,3-pentafluoro-propylcarbamoyl)-propionylamino]-2,3,4,5-tetrahydro-benzo[b][1,4]diazepine-1-carboxylic acid cyclopropylmethyl estermalonamide [Example 106]”: the IC50 worked out at 90 nM. Then `CC(C(=O)NCC(F)(F)C(F)(F)F)C(=O)N[C@H]1CN(S(=O)(=O)C(F)(F)F)c2ccccc2N(C)C1=O` (mixture of isomers) [Example 95, (2RS)-Methyl-N-((3S)-1-methyl-2-oxo-5-trifluorromethanesulfonyl-2,3,4,5-tetrahydro-1H-benzo[b][1,4]diazepin-3-yl)-N′-(2,2,3,3,3-pentafluoro-propyl)-malonamide], with 71 nM; and `CC(C(=O)NCC(F)(F)C(F)(F)F)C(=O)N[C@H]1CN(C(=O)OCC2CC2)c2ccccc2N(CC(F)(F)F)C1=O` (mixture of isomers) [Example 109, 4-Oxo-(3S)-[(2RS)-(2,2,3,3,3-pentafluoro-propylcarbamoyl)-propionylamino]-5-(2,2,2-trifluoro-ethyl)-2,3,4,5-tetrahydro-benzo[b][1,4]diazepine-1-carboxylic Acid Cyclopropylmethyl Ester], with 48 nM. Then `CC(C)(C(=O)NCC(F)(F)C(F)(F)F)C(=O)N[C@@H]1C(=O)Nc2ccccc2-c2ccccc21` [Example 67, 2,2-Dimethyl-N-((S)-6-oxo-6,7-dihydro-5H-dibenzo[b,d]azepin-7-yl)-N′-(2,2,3,3,3-pentafluoro-propyl)-malonamide], with 4 nM.
